# Test results: PubChem BioAssay AID1188 (EPA DSSTox, 2008)
# Where “and” joins values, the source holds several entries; their conditions need not be identical. Identical values can stand only once. Calls of active or inactive are those of the source.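 The calls were made as follows: active = a concentration killing half the fathead minnows in the acute test was determined; inconclusive = some fish died but not half at top dose; inactive = no fish died even at top dose.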
# Test system: Fathead minnow (Pimephales promelas) acute toxicity, lethality
# Assay: DSSTox (EPAFHM) EPA Fathead Minnow Acute Toxicity
# Summary of the method: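 Activity score is an integer 1–100 scaling of log10(1/LC50 in mmol) between dataset minimum and maximum, highest potency = 100. Underlying LC50 values (mg) come from the U.S. EPA MED database.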
SMILES,Potency,outcome
CCOP(=S)(OCC)Oc1ccc(S(C)=O)cc1 (stereo unspecified),140 µM,–
CC(C)=CC1C(C(=O)OCc2coc(Cc3ccccc3)c2)C1(C)C (stereo unspecified),0.0182 µM,–
CCCCCCCC(C)=O,107 µM,–
ClCCCCl,982 µM,–
OCC(F)(F)F,1190 µM,–
CCCCO,23300 µM,–
CCOC(=O)N(C(=O)OCC)C(=O)OCC,57 µM,–
CC(Cl)CCl (stereo unspecified),1120 µM,–
CC(C)(C)SC(C)(C)C,199 µM,–
O=P(c1ccccc1)(c1ccccc1)c1ccccc1,193 µM,–
CCC(=O)O,49900 µM,–
COc1ccc(O)cc1,886 µM,–
Oc1ccccc1-c1ccccc1,36.1 µM,–
ClC(Cl)=C(Cl)c1c(Cl)c(Cl)c(Cl)c(Cl)c1Cl,–,inactive; moa not determined either due to lack of toxicity at saturation or late test res
C=CCC#N,2710 µM,–
NC(=O)c1ccc([N+](=O)[O-])cc1,801 µM,–
ClCC(Cl)Cl,612 µM,–
CC1(C)[C@@H]2CC[C@@]1(C)C(=O)[C@H]2Br,296 µM,–
CCCCCC(=O)O,2760 µM,–
C(/C=C/c1ccccc1)=C\c1ccccc1,–,inactive; moa not determined either due to lack of toxicity at saturation or late test res
Cc1cc(C)c(O)c(C)c1,95.4 µM,–
CC1=CC(=O)c2ccccc2C1=O,0.639 µM,–
O=[N+]([O-])c1ccc(Oc2ccc(Br)cc2)c([N+](=O)[O-])c1,–,inactive; moa not determined either due to lack of toxicity at saturation or late test res
Oc1c(O)c(Cl)c(Cl)c(Cl)c1Cl,5.12 µM,–
N#CCCCCCCC#N,3880 µM,–

SMILES,Potency,outcome
CCc1ccc(C)nc1,669 µM,–
CCCCCC,29 µM,–
CCOC(=O)CCCCCCCCC(=O)OCC,10.5 µM,–
CCCCCCCCCCCCN,0.556 µM,–
CCCCCCO,956 µM,–
CC(=O)Nc1ccc(O)cc1,5390 µM,–
O=C(O)C[n+]1ccccc1,933 µM,–
ClCCCCCl,406 µM,–
O=c1ccc(Cl)c[nH]1,8800 µM,–
ClCCCl,1370 µM,–
BrCC1CCCCO1 (stereo unspecified),1150 µM,–
CCCCc1ccc(N)cc1,68 µM,–
CCOP(=S)(Oc1ccc([N+](=O)[O-])cc1)c1ccccc1 (stereo unspecified),0.243 µM,–
OCCN(CCO)c1ccccc1,4060 µM,–
CCOC(CN(C)CC(OCC)OCC)OCC,2410 µM,–
CNC(=O)Oc1ccc(C(C)(C)C)cc1,48.2 µM,–
C=CC(=O)OC1CCCCC1,9.6 µM,–
Cc1cccnc1,1550 µM,–
OC(c1ccc(Cl)cc1)(c1ccc(Cl)cc1)C(Cl)(Cl)Cl,1.67 µM,–
O=[N+]([O-])c1cc([N+](=O)[O-])c(Cl)cc1Cl,0.192 µM,–
Brc1nc(Br)c(Br)[nH]1,20.1 µM,–
COC(=O)c1cc(Cl)ccc1Cl,68.3 µM,–
Nc1ccc(Br)cn1,1020 µM,–
NC(=O)c1ccc(Cl)cc1Cl,503 µM,–
CCCCCCCCBr,4.34 µM,–

SMILES,Potency,outcome
Oc1ccc(Cl)cc1,47.5 µM,–
NCCCN,16100 µM,–
c1ccc(Oc2ccccc2)cc1,23.5 µM,–
CC12CCC(CC1)C(C)(C)O2,661 µM,–
CCCCCCCN,189 µM,–
COC(C)(C)C,7620 µM,–
COCCN,6980 µM,–
CCCCCCCCCC(C)=O,8.81 µM,–
CCCSCCSCCC,42.2 µM,–
Nc1ccc(Br)cc1,276 µM,–
O[C@@H]1CCCC[C@H]1c1ccccc1,252 µM,–
CC(C)C(O)C(C)C,1400 µM,–
CCC1(CCC(C)C)C(=O)NC(=O)NC1=O,377 µM,–
O=[N+]([O-])c1ncccc1O,1190 µM,–
Nc1ccc(F)c(C(F)(F)F)c1,168 µM,–
CC(N)Cc1ccccc1 (stereo unspecified),78.2 µM,–
Oc1cccnc1Cl,4800 µM,–
OCCN1CCNCC1,49200 µM,–
NCCO,33900 µM,–
O=C1NS(=O)(=O)c2ccccc21,82000 µM,–
CCCCOC(=O)c1ccccc1C(=O)OCCCC,3.59 µM,–
CC(C)C(C)N (stereo unspecified),3260 µM,–
CCOC(C)=O,2610 µM,–
CCC(C)(C)c1ccc(O)cc1,15.8 µM,–
CCCCCOCCCCC,19.8 µM,–

SMILES,Potency,outcome
C[N+](C)(C)C,4220 µM,–
C1N2CN3CN1CN(C2)C3,355000 µM,–
CNC(=O)O/N=C(\SC)C(=O)N(C)C,30.9 µM,–
CN(C)c1ccccc1,529 µM,–
O=[N+]([O-])c1cc([N+](=O)[O-])c2ccccc2c1O,14.5 µM,–
CCOCCOCCO,198000 µM,–
Cc1ccc([N+](=O)[O-])c(OP(=O)(Oc2cc(C)ccc2[N+](=O)[O-])Oc2cc(C)ccc2[N+](=O)[O-])c1,–,inactive; moa not determined either due to lack of toxicity at saturation or late test res
Cc1ccc(SSc2ccc(C)cc2)cc1,–,inactive; moa not determined either due to lack of toxicity at saturation or late test res
CCCCC(=O)CCCC,218 µM,–
S=c1[nH]c2cc(Cl)ccc2s1,15.9 µM,–
CNC(=O)O/N=C(\C)SC,13 µM,–
O=S(c1ccc(Cl)cc1)c1ccc(Cl)cc1,–,inactive; moa not determined either due to lack of toxicity at saturation or late test res
Brc1ccsc1,38 µM,–
CC(=O)Nc1ccccc1O,179 µM,–
C#CC(C)(O)CCC(C)C (stereo unspecified),349 µM,–
CCCCCCCBr,8.21 µM,–
C=CCOC(=O)C(=C)C,7.85 µM,–
COc1ccccc1C(N)=O,794 µM,–
O=Cc1ccccc1,93 µM,–
CN(C)N,131 µM,–
Cc1nnc(N)nc1C,7670 µM,–
CC(=O)CC(=O)c1ccccc1,6.78 µM,–
CCCCCCCCOC(=O)c1ccc(C(=O)OCCCCCCCC)cc1,–,inactive; moa not determined either due to lack of toxicity at saturation or late test res
Oc1c(Cl)c(Cl)c(Cl)c(Cl)c1Cl,0.912 µM,–
C=Cc1cccc(CCl)c1,2.03 µM,–

SMILES,Potency,outcome
C=C(C)C(=O)OCc1ccccc1,26.5 µM,–
C=CCCCCCCC=C,2.1 µM,–
CCN(CC)C(=O)c1cccc(C)c1,575 µM,–
CCSCCSCC,401 µM,–
CCCO,75700 µM,–
C#CC(C)(O)c1ccccc1 (stereo unspecified),773 µM,–
CCOP(=S)(OCC)SCCSCC,9.95 µM,–
CC(C)(O)C(F)(F)C(F)F,3640 µM,–
CC(C)C(C(=O)OC(C#N)c1cccc(Oc2ccccc2)c1)c1ccc(Cl)cc1 (stereo unspecified),0.0121 µM,–
CC(O)CC(C)(C)O (stereo unspecified),90500 µM,–
C#CC1(O)CCCCC1,2060 µM,–
C#CCN(CC#C)CC#C,2260 µM,–
CCC(=O)CC,17900 µM,–
C[N+](C)(C)c1ccccc1,924 µM and 1000 µM,–
CCO,319000 µM,–
O=[N+]([O-])c1c(Cl)cc(Cl)c([N+](=O)[O-])c1Cl,0.818 µM,–
C#CC(C)(O)C(C)C (stereo unspecified),1830 µM,–
CCCCCCC(C)=O,281 µM,–
CCC(C)O (stereo unspecified),49500 µM,–
O=C(Nc1ccccc1)c1ccccc1O,18.5 µM,–
Oc1ccccc1Cl,88.7 µM,–
CN(C)Cc1ccccc1,280 µM,–
CCN(CCO)c1cccc(C)c1,295 µM,–
COc1cc(O)c(C=O)c(OC)c1,14.7 µM,–
O=C(c1ccccc1)c1ccccc1,80.7 µM,–

SMILES,Potency,outcome
CCCCOC(=O)CCC(=O)OCCCC,19.4 µM,–
CC(C)[C@H](C(=O)OC(C#N)c1cccc(Oc2ccccc2)c1)c1ccc(OC(F)F)cc1 (stereo partly specified),0.000421 µM,–
COc1cc(OC)c(OC)cc1C=O,252 µM,–
C1COCCO1,117000 µM,–
CCCCC(C)=O,4270 µM,–
CCCCCCCCOc1ccccc1NC(C)=O,1.71 µM,–
O=Cc1cc(Br)cc(Br)c1O,3.04 µM,–
NCCCN1CCN(CCCN)CC1,15500 µM,–
N#CCCCCC#N,17900 µM,–
CC(=O)c1ccncc1,1390 µM,–
CCOC(=O)C(Cc1ccccc1)C(=O)OCC,21.7 µM,–
O=C(c1ccccc1)c1ccncc1,562 µM,–
COc1ccc(C=O)c(OC)c1,121 µM,–
CC(C)(c1cc(Cl)c(O)c(Cl)c1)c1cc(Cl)c(O)c(Cl)c1,3.63 µM,–
CCCCCCCCOC(=O)c1cccc(C(=O)OCCCCCCCC)c1,–,inactive; moa not determined either due to lack of toxicity at saturation or late test res
C=C(C)C(=C)C,84.1 µM,–
CCCCCCCC/C=C\CCCCCCCCO,–,inactive; moa not determined either due to lack of toxicity at saturation or late test res
CN(C)c1ccccn1,1040 µM,–
CCOc1ccc(C=O)cc1,187 µM,–
CC(=O)c1ccc(Cl)c([N+](=O)[O-])c1,27.6 µM,–
CCNCC,11700 µM,–
CC1CNCCN1 (stereo unspecified),22400 µM,–
N#CCCl,17.8 µM,–
O=C(NC1CCCCC1)OCCCl,170 µM,–
C#CCC(C)O (stereo unspecified),417 µM,–

SMILES,Potency,outcome
c1cc(CCc2ccncc2)ccn1,820 µM,–
O=[N+]([O-])c1ccccc1,967 µM,–
CC(C)c1cccc(C(C)C)c1N,86.3 µM,–
Cc1ccc(C)cc1,83.5 µM,–
CCCSCCCCSCCC,14.5 µM,–
O=C1C[C@@H]2OCC=C3CN4CC[C@]56c7ccccc7N1[C@H]5[C@H]2[C@H]3C[C@H]46,1.11 µM,–
CCCCCCCCCCCCCC=O,–,inactive; moa not determined either due to lack of toxicity at saturation or late test res
C=C(C)C(=O)OCCOCC,175 µM,–
Cc1cccc(Cl)c1C#N,99.6 µM,–
CCCCCCCCCCCC(N)=O,–,inactive; moa not determined either due to lack of toxicity at saturation or late test res
ClCC(Cl)CCl,391 µM,–
O=CN(c1ccccc1)c1ccccc1,154 µM,–
CCCCCCOc1ccc(C=O)cc1OC,11.3 µM,–
COc1cc(C=O)cc(Br)c1O,258 µM,–
CC(=O)OC(C)(C)C,2820 µM,–
Oc1ccccc1,347 µM,–
O=C(O)c1ccccc1,3360 µM,–
OCCN1CCOCC1,20700 µM,–
COC(=O)c1ccc(Cl)cc1,64 µM,–
c1ccc2c(c1)CCO2,680 µM,–
Oc1cc(Cl)c(Cl)c(Cl)c1Cl,1.77 µM,–
